Where two headings read alike, the source gives them in different places.
What was measured:
Assay type in all cases: cell-based, human
HTT mRNA = experiment: RT-qPCR splicing assay, HTT canonical (CJ) and alternative (AJ) junction mRNA; conditions: for AC50: read-out: HTT AJ (AC50, increase in AJ mRNA)
Method: (§1) Compounds described herein were used to modulate RNA transcript abundance in cells. The expression of a target mRNA was measured by detecting the formation of an exon-exon junction in the canonical transcript (CJ). A compound mediated exon-inclusion event was detected by observing an increase in formation of a new junction with an alternative exon (AJ). Real-time qPCR assays were used to detect these splicing switches and interrogate the potency of various compounds towards different target genes. A high-throughput real time quantitative PCR (RT-qPCR) assay was developed to measure these two isoforms of the mRNA (CJ and AJ) for exemplary genes, such as HTT, SMN2, and MYB, together with a control housekeeping gene, GAPDH or GUSB or PPIA, used for normalization. Briefly, the A673 or K562 cell line was treated with various compounds described herein (e.g., compounds of Formula (I), (II), (III), (IV)). After treatment, the levels of the HTT, MYB, or SMN2 mRNA targets were determined from each sample of cell lysate by cDNA synthesis followed by qPCR.
(§2) The A673 cell line was cultured in DMEM with 10% FBS. Cells were diluted with full growth media and plated in a 96-well plate (15,000 cells in 100ul media per well). The plate was incubated at 37° C. with 5% CO2 for 24 hours to allow cells to adhere. An 11-point 3-fold serial dilution of the compounds was made in DMSO then diluted in media in an intermediate plate. Compounds were transferred from the intermediate plate to the cell plate with the top dose at a final concentration of 10 uM in the well. Final DMSO concentration was kept at or below 0.25%. The cell plate was returned to the incubator at 37° C. with 5% CO2 for an additional 24 hours.
(§3) The K562 cell line was cultured in IMDM with 10% FBS. For K562, cells were diluted with full growth media and plated in either a 96-well plate (50,000 cells in 50 uL media per well) or a 384-well plate (8,000-40,000 cells in 45 uL media per well). An 11-point 3-fold serial dilution of the compounds were made in DMSO then diluted in media in an intermediate plate.
(§4) Compound was transferred from the intermediate plate to the cell plate with the top dose at a final concentration of 10 uM in the well. Final DMSO concentration was kept at or below 0.25%.
(§5) Final volume was 100 uL for 96-well plate and 50 uL for 384-well plate. The cell plate was then placed in an incubator at 37° C. with 5% CO2 for 24 hours.
(§6) The cells were then gently washed with 50 uL-100 uL cold PBS before proceeding to addition of lysis buffer. 30 uL-50 μL of room temperature lysis buffer with DNAse I (and optionally RNAsin) was added to each well. Cells were shaken/mixed thoroughly at room temperature for 5-10 minutes for lysis to take place and then 3 uL-5 μL of room temperature stop solution was added and wells were shaken/mixed again. After 2-5 minutes, the cell lysate plate was transferred to ice for RT-qPCR reaction setup. The lysates could also be frozen at −80° C. for later use.
(§7) In some cases, a direct lysis buffer was used. An appropriate volume of 3× lysis buffer (10 mM Tris, 150 mM NaCl, 1.5%-2.5% Igepal and 0.1-1 U/uL RNAsin, pH 7.4) was directly added to either K562 or A673 cells in media and mixed by pipetting 3 times. The plates were then incubated at room temperature with shaking/rocking for 20-50 minutes to allow for lysis to take place. After this time, the cell lysate plate was transferred to ice to set up for the RT-qPCR reactions. The lysates could also be frozen at −80° C. for later use.
(§8) To set up 10 uL RT-qPCR reactions, cell lysates were transferred to 384-well qPCR plates containing the master mix according to the table below. The plates were sealed, gently vortexed, and spun down before the run. The volumes were adjusted accordingly in some instances where the reaction was carried in 20 μL. The table below summarizes the components of the RT-qPCR reactions: […]

MYB mRNA = experiment: RT-qPCR splicing assay, MYB canonical (CJ) and alternative (AJ) junction mRNA; conditions: for AC50: read-out: MYB AJ (AC50, increase in AJ mRNA)
Method: as §1, §2, §3, §4, §5, §6, §7, §8

SMN2 mRNA = experiment: RT-qPCR splicing assay panel, SMN2 canonical junction (CJ) mRNA; conditions: canonical junction (CJ) mRNA, RT-qPCR panel, Table 4A, read-out: SMN2, decrease in CJ mRNA levels, IC50
Method: as §1, §2, §3, §4, §5, §6, §7, §8

Target C mRNA = experiment: RT-qPCR splicing assay panel, Target C canonical junction (CJ) mRNA; conditions: canonical junction (CJ) mRNA, RT-qPCR panel, Table 4A, read-out: Target C, decrease in CJ mRNA levels, IC50
Method: as §1, §2, §3, §4, §5, §6, §7, §8

[1] = Homo sapiens, 24 h, Table 3A, A673 or K562 cells, 24 h treatment
[2] = Homo sapiens, 24 h, Table 3A, A673 or K562 cells, 24 h treatment, read-out: HTT CJ (IC50, decrease in CJ mRNA)
[3] = Homo sapiens, canonical junction (CJ) mRNA, RT-qPCR panel, Table 4A, read-out: HTT, decrease in CJ mRNA levels, IC50
[4] = Homo sapiens, 24 h, Table 3A, A673 or K562 cells, 24 h treatment, read-out: MYB CJ (IC50, decrease in CJ mRNA)
[5] = Homo sapiens, canonical junction (CJ) mRNA, RT-qPCR panel, Table 4A, read-out: MYB, decrease in CJ mRNA levels, IC50
[6] = Table 3A, A673 or K562 cells, 24 h treatment
[7] = Table 3A, A673 or K562 cells, 24 h treatment, read-out: HTT CJ (IC50, decrease in CJ mRNA)
[8] = canonical junction (CJ) mRNA, RT-qPCR panel, Table 4A, read-out: HTT, decrease in CJ mRNA levels, IC50
[9] = Table 3A, A673 or K562 cells, 24 h treatment, read-out: MYB CJ (IC50, decrease in CJ mRNA)
[10] = canonical junction (CJ) mRNA, RT-qPCR panel, Table 4A, read-out: MYB, decrease in CJ mRNA levels, IC50

Row | SMILES | IC50 (HTT mRNA; [2]) | IC50 (HTT mRNA; [3]) | IC50 (MYB mRNA; [4]) | IC50 (MYB mRNA; [5]) | IC50 (SMN2 mRNA; Homo sapiens) | IC50 (Target C mRNA; Homo sapiens) | IC50 (HTT mRNA; [7]) | IC50 (HTT mRNA; [8]) | IC50 (MYB mRNA; [9]) | IC50 (MYB mRNA; [10]) | IC50 (SMN2 mRNA) | IC50 (Target C mRNA) | AC50 (HTT mRNA; [1]) | AC50 (MYB mRNA; [1]) | AC50 (HTT mRNA; [6]) | AC50 (MYB mRNA; [6])
1 | COc1cc(-c2ccc(-c3ccc(N4CC(F)[C@@H](NC(C)(C)C)C4)nn3)c(O)c2)cnn1 (stereo in doubt) [Compound 217, 2-{6-[(3S,4R)-3-(tert-butylamino)-4-fluoropyrrolidin-1-yl]pyridazin-3-yl}-5-(6-methoxypyridazin-4-yl)phenol] | 100 to 1000 nM | 100 to 1000 nM | 100 to 1000 nM | 100 to 1000 nM | < 100 nM | 100 to 1000 nM | – | – | – | – | – | – | 100 to 1000 nM | 1000 to 10000 nM | – | –
2 | COc1cc(-c2ccc(-c3ccc(N4CCC(CNC5CCC5)C4)nn3)c(O)c2)cnn1 (stereo in doubt) [Compound 441, 2-{6-[(3S)-3-[(cyclobutylamino)methyl]pyrrolidin-1-yl]pyridazin-3-yl}-5-(6-methoxypyridazin-4-yl)phenol] | 100 to 1000 nM | 100 to 1000 nM | 100 to 1000 nM | 100 to 1000 nM | < 100 nM | 100 to 1000 nM | – | – | – | – | – | – | 100 to 1000 nM | 100 to 1000 nM | – | –
3 | Oc1cc(-c2cn[nH]c2)ccc1-c1ccc(N2CCC(NC3CC3)C2)nn1 (stereo not drawn) [Compound 100, 2-(6-(3-(cyclopropylamino)pyrrolidin-1-yl)pyridazin-3-yl)-5-(1H-pyrazol-4-yl)phenol] | – | – | – | – | – | – | < 100 nM | < 100 nM | 100 to 1000 nM | 100 to 1000 nM | < 100 nM | < 100 nM | – | – | < 100 nM | 100 to 1000 nM
4 | Oc1cc(-c2cn[nH]c2)ccc1-c1ccc(N2CCC(NC3CC3)C2)nn1 (stereo not drawn) [Compound 102, 2-(6-(3-(cyclopropylamino)pyrrolidin-1-yl)pyridazin-3-yl)-5-(1H-pyrazol-4-yl)phenol] | – | – | – | – | – | – | > 10000 nM | > 10000 nM | > 10000 nM | > 10000 nM | 1000 to 10000 nM | > 10000 nM | – | – | > 10000 nM | > 10000 nM
5 | Oc1cc(-c2cn[nH]c2)ccc1-c1ccc(N2CC[C@H](NC3CC3)C2)nn1 [Compound 104, 2-{6-[(3S)-3-(cyclopropylamino)pyrrolidin-1-yl]pyridazin-3-yl}-5-(1H-pyrazol-4-yl)phenol; ethane] | < 100 nM | < 100 nM | 100 to 1000 nM | 100 to 1000 nM | < 100 nM | 100 to 1000 nM | – | – | – | – | – | – | < 100 nM | 100 to 1000 nM | – | –
6 | Oc1cc(-c2cn[nH]c2)c(F)cc1-c1ccc(N2CC[C@@H](NC3CC3)C2)nn1 [Compound 106, 2-{6-[(3R)-3-(cyclopropylamino)pyrrolidin-1-yl]pyridazin-3-yl}-4-fluoro-5-(1H-pyrazol-4-yl)phenol] | < 100 nM | < 100 nM | 100 to 1000 nM | 100 to 1000 nM | < 100 nM | 100 to 1000 nM | – | – | – | – | – | – | < 100 nM | 100 to 1000 nM | – | –
7 | CC1(NC2CCN(c3ccc(-c4ccc(-c5cn[nH]c5)cc4O)nn3)C2)CC1 (stereo not drawn) [Compound 107, 2-(6-{3-[(1-methylcyclopropyl)amino]pyrrolidin-1-yl}pyridazin-3-yl)-5-(1H-pyrazol-4-yl)phenol] | < 100 nM | < 100 nM | < 100 nM | < 100 nM | < 100 nM | < 100 nM | – | – | – | – | – | – | < 100 nM | < 100 nM | – | –
8 | Oc1cc(-c2cn[nH]c2)ccc1-c1ccc(N2CCC(NCC3CC3)C2)nn1 (stereo not drawn) [Compound 108, 2-(6-{3-[(cyclopropylmethyl)amino]pyrrolidin-1-yl}pyridazin-3-yl)-5-(1H-pyrazol-4-yl)phenol; methane] | < 100 nM | < 100 nM | 100 to 1000 nM | 100 to 1000 nM | < 100 nM | 100 to 1000 nM | – | – | – | – | – | – | < 100 nM | 100 to 1000 nM | – | –

More lines, main results first:

Row | IC50 (HTT mRNA; [2]) | IC50 (HTT mRNA; [3]) | IC50 (MYB mRNA; [4]) | IC50 (MYB mRNA; [5]) | IC50 (SMN2 mRNA; Homo sapiens) | IC50 (Target C mRNA; Homo sapiens) | IC50 (HTT mRNA; [7]) | IC50 (HTT mRNA; [8]) | IC50 (MYB mRNA; [9]) | IC50 (MYB mRNA; [10]) | IC50 (SMN2 mRNA) | IC50 (Target C mRNA) | SMILES | AC50 (HTT mRNA; [1]) | AC50 (MYB mRNA; [1]) | AC50 (HTT mRNA; [6]) | AC50 (MYB mRNA; [6])
9 | < 100 nM | < 100 nM | 100 to 1000 nM | 100 to 1000 nM | < 100 nM | < 100 nM | – | – | – | – | – | – | Oc1cc(-c2cn[nH]c2)c(F)cc1-c1ccc(N2CCC(NC3CC3)C2)nn1 (stereo in doubt) [Compound 105, 2-{6-[(3R)-3-(cyclopropylamino)pyrrolidin-1-yl]pyridazin-3-yl}-4-fluoro-5-(1H-pyrazol-4-yl)phenol] | < 100 nM | 100 to 1000 nM | – | –
10 | < 100 nM | < 100 nM | < 100 nM | < 100 nM | < 100 nM | < 100 nM | – | – | – | – | – | – | CN(C1CCN(c2ccc(-c3cc(F)c(-c4cn[nH]c4)cc3O)nn2)C1)C(C)(C)C (stereo in doubt) [Compound 119, 2-{6-[(3S)-3-[tert-butyl(methyl)amino]pyrrolidin-1-yl]pyridazin-3-yl}-4-fluoro-5-(1H-pyrazol-4-yl)phenol] | < 100 nM | < 100 nM | – | –
11 | < 100 nM | < 100 nM | < 100 nM | < 100 nM | < 100 nM | < 100 nM | – | – | – | – | – | – | CN(C1CCN(c2ccc(-c3cc(F)c(-c4cn[nH]c4)cc3O)nn2)C1)C(C)(C)C (stereo in doubt) [Compound 120, 2-{6-[(3R)-3-[tert-butyl(methyl)amino]pyrrolidin-1-yl]pyridazin-3-yl}-4-fluoro-5-(1H-pyrazol-4-yl)phenol] | < 100 nM | < 100 nM | – | –
12 | < 100 nM | < 100 nM | < 100 nM | < 100 nM | < 100 nM | < 100 nM | – | – | – | – | – | – | CC(C)(C)N[C@H]1CCN(c2ccc(-c3ccc(-c4cn[nH]c4)cc3O)nn2)C1 [Compound 101, 2-{6-[(3S)-3-(tert-butylamino)pyrrolidin-1-yl]pyridazin-3-yl}-5-(1H-pyrazol-4-yl)phenol] | < 100 nM | < 100 nM | – | –
